Test [1] addresses T1, D(1A) dopamine receptor (Homo sapiens, UniProt P21728). The class given is functional, cell-based.
The target of test [2] is T2, Estrogen receptor (Homo sapiens, UniProt P03372).
T2 sequence (P03372 whole entry): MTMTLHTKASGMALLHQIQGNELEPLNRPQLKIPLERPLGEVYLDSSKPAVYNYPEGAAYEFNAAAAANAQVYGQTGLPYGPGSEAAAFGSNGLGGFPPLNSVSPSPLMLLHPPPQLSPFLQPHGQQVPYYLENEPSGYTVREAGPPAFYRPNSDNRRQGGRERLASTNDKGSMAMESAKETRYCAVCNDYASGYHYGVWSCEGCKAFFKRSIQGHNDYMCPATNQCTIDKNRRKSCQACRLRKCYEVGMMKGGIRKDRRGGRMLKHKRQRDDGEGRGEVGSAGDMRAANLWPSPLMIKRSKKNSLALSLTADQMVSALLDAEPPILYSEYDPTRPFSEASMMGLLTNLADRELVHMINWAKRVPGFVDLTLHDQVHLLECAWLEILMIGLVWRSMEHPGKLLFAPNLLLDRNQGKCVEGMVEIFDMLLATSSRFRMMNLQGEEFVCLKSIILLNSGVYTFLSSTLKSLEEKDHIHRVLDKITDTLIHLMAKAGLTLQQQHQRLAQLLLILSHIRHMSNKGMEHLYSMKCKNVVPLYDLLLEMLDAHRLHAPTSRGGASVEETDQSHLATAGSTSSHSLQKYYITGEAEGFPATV
The class given is functional.

The target of test [3] is T2, Estrogen receptor. The class given is functional. The source holds these as a separate data set.
In test [4] the target is Gamma-aminobutyric acid receptor subunit alpha-1/alpha-2/beta-2/gamma-2 (Homo sapiens, UniProt P14867+P18507+P47869+P47870). The class given is functional, cell-based.
Chain of Gamma-aminobutyric acid receptor subunit alpha-1/alpha-2/beta-2/gamma-2 (P14867 whole entry): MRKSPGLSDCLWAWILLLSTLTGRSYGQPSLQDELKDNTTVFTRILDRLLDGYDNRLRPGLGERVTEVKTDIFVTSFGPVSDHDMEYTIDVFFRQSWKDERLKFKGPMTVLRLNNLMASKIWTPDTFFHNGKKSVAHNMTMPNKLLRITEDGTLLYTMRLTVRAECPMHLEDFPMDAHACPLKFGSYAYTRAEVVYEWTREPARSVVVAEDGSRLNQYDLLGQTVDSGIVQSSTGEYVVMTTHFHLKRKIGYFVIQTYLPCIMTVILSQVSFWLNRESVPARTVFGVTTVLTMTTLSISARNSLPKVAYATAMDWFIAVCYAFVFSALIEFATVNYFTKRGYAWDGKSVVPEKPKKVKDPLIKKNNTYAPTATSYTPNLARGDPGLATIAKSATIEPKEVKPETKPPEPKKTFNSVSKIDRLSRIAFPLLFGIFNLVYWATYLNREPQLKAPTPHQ
Chain of Gamma-aminobutyric acid receptor subunit alpha-1/alpha-2/beta-2/gamma-2 (P47870 whole entry): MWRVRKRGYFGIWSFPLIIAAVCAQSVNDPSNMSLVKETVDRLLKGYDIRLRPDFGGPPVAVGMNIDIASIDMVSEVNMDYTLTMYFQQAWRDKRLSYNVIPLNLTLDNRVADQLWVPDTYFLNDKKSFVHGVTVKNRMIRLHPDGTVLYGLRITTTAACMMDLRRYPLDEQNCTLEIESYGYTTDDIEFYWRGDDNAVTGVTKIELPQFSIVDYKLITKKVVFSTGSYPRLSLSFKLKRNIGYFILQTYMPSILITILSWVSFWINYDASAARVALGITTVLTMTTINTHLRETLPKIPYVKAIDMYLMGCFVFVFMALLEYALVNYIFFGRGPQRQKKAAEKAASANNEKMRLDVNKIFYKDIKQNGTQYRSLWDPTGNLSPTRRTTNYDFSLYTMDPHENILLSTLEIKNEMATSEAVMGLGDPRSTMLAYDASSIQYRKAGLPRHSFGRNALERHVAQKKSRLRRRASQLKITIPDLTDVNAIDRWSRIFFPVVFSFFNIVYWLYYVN
Chain of Gamma-aminobutyric acid receptor subunit alpha-1/alpha-2/beta-2/gamma-2 (P18507 whole entry): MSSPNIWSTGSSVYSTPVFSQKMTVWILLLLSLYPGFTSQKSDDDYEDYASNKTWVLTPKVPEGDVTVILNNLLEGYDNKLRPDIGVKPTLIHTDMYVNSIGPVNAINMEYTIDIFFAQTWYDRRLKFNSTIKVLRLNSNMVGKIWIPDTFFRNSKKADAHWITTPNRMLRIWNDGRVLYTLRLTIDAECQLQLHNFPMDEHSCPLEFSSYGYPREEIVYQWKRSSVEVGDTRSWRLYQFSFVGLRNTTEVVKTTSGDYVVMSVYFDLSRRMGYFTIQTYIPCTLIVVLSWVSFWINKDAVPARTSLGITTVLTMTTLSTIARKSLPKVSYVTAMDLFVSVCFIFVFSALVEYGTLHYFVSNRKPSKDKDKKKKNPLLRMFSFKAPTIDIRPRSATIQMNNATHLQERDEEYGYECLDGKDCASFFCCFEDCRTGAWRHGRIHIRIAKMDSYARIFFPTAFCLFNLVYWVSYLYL
Chain of Gamma-aminobutyric acid receptor subunit alpha-1/alpha-2/beta-2/gamma-2 (P47869 whole entry): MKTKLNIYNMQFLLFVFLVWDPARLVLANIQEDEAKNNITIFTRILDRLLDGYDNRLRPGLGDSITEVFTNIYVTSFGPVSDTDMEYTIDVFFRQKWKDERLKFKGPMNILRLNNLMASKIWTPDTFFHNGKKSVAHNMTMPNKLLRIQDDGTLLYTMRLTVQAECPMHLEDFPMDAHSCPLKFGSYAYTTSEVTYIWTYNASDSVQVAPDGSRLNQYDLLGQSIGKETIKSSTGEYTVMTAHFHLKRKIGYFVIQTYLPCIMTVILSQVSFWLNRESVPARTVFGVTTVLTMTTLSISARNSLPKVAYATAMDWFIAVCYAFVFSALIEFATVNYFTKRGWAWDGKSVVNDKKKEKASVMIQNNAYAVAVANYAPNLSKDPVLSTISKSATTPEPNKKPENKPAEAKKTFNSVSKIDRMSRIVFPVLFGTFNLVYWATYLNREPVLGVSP
The target of test [5] is T3, Peroxisome proliferator-activated receptor gamma (Homo sapiens, UniProt P37231).
T3 sequence (P37231 whole entry): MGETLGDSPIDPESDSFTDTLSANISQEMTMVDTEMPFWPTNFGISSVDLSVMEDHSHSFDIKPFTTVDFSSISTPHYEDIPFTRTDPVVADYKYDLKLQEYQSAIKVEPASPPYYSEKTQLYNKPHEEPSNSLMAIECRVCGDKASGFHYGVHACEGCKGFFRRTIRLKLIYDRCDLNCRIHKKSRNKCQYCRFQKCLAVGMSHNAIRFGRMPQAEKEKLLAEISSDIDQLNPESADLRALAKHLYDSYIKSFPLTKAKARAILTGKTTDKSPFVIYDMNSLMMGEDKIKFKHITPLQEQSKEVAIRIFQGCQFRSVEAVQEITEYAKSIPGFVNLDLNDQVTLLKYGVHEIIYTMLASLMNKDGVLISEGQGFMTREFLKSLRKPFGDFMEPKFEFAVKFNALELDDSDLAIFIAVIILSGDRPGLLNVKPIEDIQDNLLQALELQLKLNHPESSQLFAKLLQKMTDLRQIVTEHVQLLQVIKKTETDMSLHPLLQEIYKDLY
Type of test: functional.

The target of test [6] is T1, D(1A) dopamine receptor.
In test [7] the target is Vascular endothelial growth factor receptor 2 (Homo sapiens, UniProt P35968). Type of test: functional.
Chain of Vascular endothelial growth factor receptor 2 (P35968 whole entry): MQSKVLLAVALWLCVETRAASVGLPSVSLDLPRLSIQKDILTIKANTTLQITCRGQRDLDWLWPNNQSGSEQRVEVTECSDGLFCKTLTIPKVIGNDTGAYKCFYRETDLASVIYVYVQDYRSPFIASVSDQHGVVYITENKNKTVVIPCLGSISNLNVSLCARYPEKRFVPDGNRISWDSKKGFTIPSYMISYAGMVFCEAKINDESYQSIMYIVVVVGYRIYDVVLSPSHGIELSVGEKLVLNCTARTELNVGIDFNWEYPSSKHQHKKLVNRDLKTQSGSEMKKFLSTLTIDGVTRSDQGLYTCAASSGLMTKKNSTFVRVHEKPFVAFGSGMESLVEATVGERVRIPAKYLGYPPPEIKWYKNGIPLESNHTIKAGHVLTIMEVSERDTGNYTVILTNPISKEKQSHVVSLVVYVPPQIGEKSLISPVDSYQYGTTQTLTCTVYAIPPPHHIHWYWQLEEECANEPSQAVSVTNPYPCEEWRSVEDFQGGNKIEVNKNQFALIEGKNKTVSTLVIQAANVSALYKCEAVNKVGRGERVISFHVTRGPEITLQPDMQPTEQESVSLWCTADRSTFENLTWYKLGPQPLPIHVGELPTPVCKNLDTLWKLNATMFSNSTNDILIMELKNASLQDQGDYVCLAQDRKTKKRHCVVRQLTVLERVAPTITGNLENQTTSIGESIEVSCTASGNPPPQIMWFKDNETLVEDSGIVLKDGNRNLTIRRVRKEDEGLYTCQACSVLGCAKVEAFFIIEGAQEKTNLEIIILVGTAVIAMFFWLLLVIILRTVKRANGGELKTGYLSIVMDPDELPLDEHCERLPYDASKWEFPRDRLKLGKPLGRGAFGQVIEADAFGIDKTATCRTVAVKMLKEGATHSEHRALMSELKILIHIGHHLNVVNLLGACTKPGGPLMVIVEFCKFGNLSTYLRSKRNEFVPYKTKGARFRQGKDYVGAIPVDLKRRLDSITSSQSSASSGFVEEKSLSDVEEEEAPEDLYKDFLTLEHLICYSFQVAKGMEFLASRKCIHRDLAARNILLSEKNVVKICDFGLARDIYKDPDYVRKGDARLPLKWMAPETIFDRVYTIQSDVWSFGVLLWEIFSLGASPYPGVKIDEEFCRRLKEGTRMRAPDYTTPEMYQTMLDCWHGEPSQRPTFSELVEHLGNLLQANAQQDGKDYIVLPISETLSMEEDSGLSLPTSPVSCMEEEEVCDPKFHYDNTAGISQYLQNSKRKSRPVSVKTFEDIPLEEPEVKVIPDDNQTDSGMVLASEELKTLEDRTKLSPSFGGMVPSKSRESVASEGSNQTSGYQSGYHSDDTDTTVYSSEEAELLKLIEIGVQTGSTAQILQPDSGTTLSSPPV
Test [8] has as its target Beta-3 adrenergic receptor (Homo sapiens, UniProt P13945).
In the next test the target is T4, B1 bradykinin receptor (Homo sapiens, UniProt P46663).
T4 sequence (P46663 whole entry): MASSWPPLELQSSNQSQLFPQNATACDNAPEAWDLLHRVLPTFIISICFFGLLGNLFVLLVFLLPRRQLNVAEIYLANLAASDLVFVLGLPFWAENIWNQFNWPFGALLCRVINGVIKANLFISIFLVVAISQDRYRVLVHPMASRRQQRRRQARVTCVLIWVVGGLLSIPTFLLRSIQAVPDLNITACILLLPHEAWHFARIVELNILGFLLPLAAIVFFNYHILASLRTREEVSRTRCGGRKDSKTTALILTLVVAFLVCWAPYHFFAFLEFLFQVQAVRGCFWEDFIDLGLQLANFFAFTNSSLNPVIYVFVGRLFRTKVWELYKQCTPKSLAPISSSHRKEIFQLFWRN

The target in test [9] is T5, Endothelin receptor type B (Homo sapiens, UniProt P24530).
T5 sequence (P24530 whole entry): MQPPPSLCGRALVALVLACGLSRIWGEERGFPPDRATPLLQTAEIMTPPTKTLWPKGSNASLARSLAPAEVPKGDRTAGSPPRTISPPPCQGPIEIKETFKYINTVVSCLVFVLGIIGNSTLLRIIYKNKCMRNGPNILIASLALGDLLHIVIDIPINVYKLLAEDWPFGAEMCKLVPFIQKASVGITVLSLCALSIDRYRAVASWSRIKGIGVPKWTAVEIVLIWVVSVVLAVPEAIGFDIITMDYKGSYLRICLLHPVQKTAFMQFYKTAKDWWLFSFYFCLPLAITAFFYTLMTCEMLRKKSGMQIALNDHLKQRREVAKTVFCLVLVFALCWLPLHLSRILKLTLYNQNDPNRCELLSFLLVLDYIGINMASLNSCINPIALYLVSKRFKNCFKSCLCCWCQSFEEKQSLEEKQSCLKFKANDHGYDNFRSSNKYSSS

In test [10] the target is T2, Estrogen receptor.
The target of a further test is Histamine H2 receptor (Homo sapiens, UniProt P25021).
Chain of Histamine H2 receptor (P25021 whole entry): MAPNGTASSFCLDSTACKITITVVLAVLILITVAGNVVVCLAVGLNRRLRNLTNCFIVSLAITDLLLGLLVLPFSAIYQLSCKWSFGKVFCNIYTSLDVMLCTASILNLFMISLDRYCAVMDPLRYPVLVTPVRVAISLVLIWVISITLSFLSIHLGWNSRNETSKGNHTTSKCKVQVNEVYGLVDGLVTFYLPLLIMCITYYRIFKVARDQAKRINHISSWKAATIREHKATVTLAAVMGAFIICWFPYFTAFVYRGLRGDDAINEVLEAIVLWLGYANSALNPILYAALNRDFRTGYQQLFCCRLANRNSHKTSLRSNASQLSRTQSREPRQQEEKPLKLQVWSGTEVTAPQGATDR
Test [11] addresses T6, Neuropeptide Y receptor type 2 (Homo sapiens, UniProt P49146).
T6 sequence (P49146 whole entry): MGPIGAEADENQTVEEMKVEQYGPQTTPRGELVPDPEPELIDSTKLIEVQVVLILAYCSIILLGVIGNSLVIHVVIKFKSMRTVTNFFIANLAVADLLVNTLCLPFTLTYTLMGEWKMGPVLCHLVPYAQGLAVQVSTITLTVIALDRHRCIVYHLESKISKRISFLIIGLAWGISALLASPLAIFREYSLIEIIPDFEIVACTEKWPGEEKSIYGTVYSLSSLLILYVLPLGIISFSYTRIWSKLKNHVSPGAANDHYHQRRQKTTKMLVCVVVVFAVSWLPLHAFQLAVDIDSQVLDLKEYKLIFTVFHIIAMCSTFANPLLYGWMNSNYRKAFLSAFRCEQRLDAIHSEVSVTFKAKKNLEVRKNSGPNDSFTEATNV

For test [12], the target named is Neurotensin receptor type 1 (Homo sapiens, UniProt P30989).
Chain of Neurotensin receptor type 1 (P30989 whole entry): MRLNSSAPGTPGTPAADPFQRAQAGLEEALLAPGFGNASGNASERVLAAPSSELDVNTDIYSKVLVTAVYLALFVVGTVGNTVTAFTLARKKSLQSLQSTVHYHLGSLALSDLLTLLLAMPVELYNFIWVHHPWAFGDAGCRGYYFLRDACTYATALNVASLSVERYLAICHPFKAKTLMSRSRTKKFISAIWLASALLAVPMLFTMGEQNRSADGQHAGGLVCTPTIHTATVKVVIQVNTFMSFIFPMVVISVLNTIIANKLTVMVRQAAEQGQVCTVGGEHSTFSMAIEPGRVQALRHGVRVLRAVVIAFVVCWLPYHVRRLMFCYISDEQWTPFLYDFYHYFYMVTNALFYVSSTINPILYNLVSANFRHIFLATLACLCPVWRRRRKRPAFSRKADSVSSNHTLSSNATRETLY
Another test has as its target Substance-P receptor (Homo sapiens, UniProt P25103).

In general, AC50 refers to the concentration giving half of the maximal activity seen. Low readings indicate greater potency, high ones weaker potency.

SMILES strings stand for the structures.
Also: assay procedure not described here.

T1 sequence (P21728 whole entry): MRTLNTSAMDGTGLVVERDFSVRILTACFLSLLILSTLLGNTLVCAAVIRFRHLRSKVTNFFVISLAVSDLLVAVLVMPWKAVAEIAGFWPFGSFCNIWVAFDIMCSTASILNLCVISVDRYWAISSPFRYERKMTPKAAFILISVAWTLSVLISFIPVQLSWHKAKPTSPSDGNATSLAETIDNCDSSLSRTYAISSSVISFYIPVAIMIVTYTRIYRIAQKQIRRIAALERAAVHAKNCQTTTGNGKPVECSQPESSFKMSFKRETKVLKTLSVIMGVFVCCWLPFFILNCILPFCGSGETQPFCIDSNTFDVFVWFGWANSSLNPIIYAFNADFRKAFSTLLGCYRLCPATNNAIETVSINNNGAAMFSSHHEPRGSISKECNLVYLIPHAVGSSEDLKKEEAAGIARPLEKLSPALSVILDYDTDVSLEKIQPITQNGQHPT
Chain of Beta-3 adrenergic receptor (P13945 whole entry): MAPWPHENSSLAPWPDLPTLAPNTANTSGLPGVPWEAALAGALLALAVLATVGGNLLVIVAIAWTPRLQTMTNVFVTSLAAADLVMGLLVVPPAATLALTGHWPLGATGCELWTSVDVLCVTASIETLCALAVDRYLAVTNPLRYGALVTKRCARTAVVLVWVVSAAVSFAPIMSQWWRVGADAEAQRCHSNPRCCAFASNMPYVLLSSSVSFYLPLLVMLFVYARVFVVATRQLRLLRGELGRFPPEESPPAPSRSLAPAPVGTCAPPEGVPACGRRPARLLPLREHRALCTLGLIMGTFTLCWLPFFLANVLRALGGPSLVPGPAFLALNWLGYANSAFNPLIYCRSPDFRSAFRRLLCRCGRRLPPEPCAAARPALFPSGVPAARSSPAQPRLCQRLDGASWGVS

As for `c1ccc([C@H]2CN3CCSC3=N2)cc1` [LEVAMISOLE], the AC50 (at D(1A) dopamine receptor [1]; on Estrogen receptor [2]; at Estrogen receptor [3]; in test [4]; in test [5]; on D(1A) dopamine receptor [6]) was above 30 µM throughout. The same compound gave an AC50 in test [7] above 30 µM.

`CNC1Cc2ccccc2N(C)c2ccccc21` (stereo not given) [METAPRAMINE]: the AC50 (on D(1A) dopamine receptor [1]; at Estrogen receptor [2]; on Estrogen receptor [3]; in test [4]; in test [5]; in [7]) was above 30 µM throughout.

Regarding `COc1ccc(CC(C)(C)NC[C@H](O)c2cc(O)cc3c2OCC(=O)N3)cc1` [OLODATEROL], the concentration at half-maximal activity (AC50) (at D(1A) dopamine receptor [1]; on Estrogen receptor [2]; on Estrogen receptor [3]; in test [4]; in test [5]; in test [7]) was above 30 µM each time.

Turning to `C1CCC(C(CC2CCCCN2)C2CCCCC2)CC1` (stereo not given) [PERHEXILINE], the AC50 (at D(1A) dopamine receptor [1]; on Estrogen receptor [2]; at Estrogen receptor [3]; in test [4]; in [5]; in [7]) was above 30 µM throughout.

`c1cnc(N2CCN(Cc3ccc4c(c3)OCO4)CC2)nc1` [PIRIBEDIL]: the AC50 (on D(1A) dopamine receptor [1]; on Estrogen receptor [2]; at Estrogen receptor [3]; in test [4]; in test [5]; in [7]) was above 30 µM in each case.

As for `Cc1c(C(=O)NN2CCCCC2)nn(-c2ccc(Cl)cc2Cl)c1-c1ccc(Cl)cc1` [RIMONABANT], the AC50 in test [8] is above 30 µM; on B1 bradykinin receptor, above 30 µM; on D(1A) dopamine receptor [1] it was 26 µM; in [9], above 30 µM; at Estrogen receptor [2], above 30 µM; at Estrogen receptor [3], above 10 µM. The AC50 at Estrogen receptor [10] was above 30 µM; in test [4] it was above 30 µM; on Histamine H2 receptor, 10.9 µM; in test [11], above 30 µM; in [12], above 30 µM; in test [5], above 30 µM. Besides, the AC50 at Substance-P receptor was above 10 µM; in test [7] it was above 30 µM.

For `Cn1nnc2c(C(N)=O)ncn2c1=O` [TEMOZOLOMIDE], the AC50 (in test [8]; at B1 bradykinin receptor; at D(1A) dopamine receptor [1]; in test [9]; at Estrogen receptor [2]; at Estrogen receptor [3]) was above 30 µM each time. In addition, the AC50 at Estrogen receptor [10] was above 30 µM; in test [4], above 30 µM; on Histamine H2 receptor, above 10 µM; in [11] it was above 30 µM; in test [12] it was above 30 µM; in test [5] it was above 30 µM. The AC50 on Substance-P receptor is above 10 µM; at D(1A) dopamine receptor [6], above 10 µM; in test [7], above 30 µM.

These data come from ChEMBL document CHEMBL5291721, “A preclinical secondary pharmacology resource illuminates target-adverse drug reaction associations of marketed drugs” (Nat Commun, 2023).
